{"source": "patent US9808527B2", "about": "“Methods and compositions for treating HIV infections” (priority 2006, dated 2017)", "system": "HIV-1NL4-3", "test": "In vitro selection of HIV-1 variants resistant to GRL-98065", "format": "cell-based", "text": "Generation of PI-resistant HIV-1 in vitro. MT-4 cells (10^5/mL) were exposed to HIV-1NL4-3 (500 TCID50) and cultured in the presence of various PIs at an initial concentration of its IC50 values. Viral replication was monitored by determination of the amount of p24 Gag produced by MT-4 cells. The culture supernatants were harvested on day 7 and used to infect fresh MT-4 cells for the next round of culture in the presence of increasing concentrations of each drug. […] Proviral DNA samples obtained from the lysates of infected cells were subjected to nucleotide sequencing. This drug selection procedure was carried out until the drug concentration reached 1 or 5 μM.\nThe protease-encoding region of the proviral DNA isolated from infected MT-4 cells was cloned and sequenced at passages 5, 10, 15, 20, 25, 30, 33, and 40. […] Met46 is located on the flap region of the enzyme.", "data": [{"smiles": "CC(C)CN(CC(O)C(Cc1ccccc1)NC(=O)OC1COC2OCCC12)S(=O)(=O)c1ccc2c(c1)OCO2", "note": "(centres unmarked) [GRL-98065]", "values": [{"measurement": "fold increase of drug concentration tolerated by selected virus", "setting": "40 passages in MT-4 cells, start 0.0005 μM", "value": "1,000"}, {"measurement": "drug concentration at which selected virus was still propagating", "setting": "after 40 passages in MT-4 cells", "value": 0.5, "unit": "µM"}]}]}
